# Test results from paper PMC13080230, “Zebrafish as a model for Catel–Manzke syndrome—identification and characterization of the zebrafish TGDS ortholog” (The Febs Journal, 2025).
# Residue numbers refer to the chain shown, from its start.
# What was measured:
# [1] = molecular target: T1, zebrafish Tgds (Danio rerio, UniProt A0AC58JQE1); test: cycling assay of NAD+ tightly bound to the purified protein; format: binding; details: co-purified, tightly bound cofactor; protein from calculated extinction coefficient at 280 nm
# T1 construct: full coding region (347 residues) from ovary cDNA, pET-28a NdeI/XhoI, N-terminal 6xHis tag (cutting not mentioned), E. coli BL21 DE
# T1 sequence (A0AC58JQE1 1-347): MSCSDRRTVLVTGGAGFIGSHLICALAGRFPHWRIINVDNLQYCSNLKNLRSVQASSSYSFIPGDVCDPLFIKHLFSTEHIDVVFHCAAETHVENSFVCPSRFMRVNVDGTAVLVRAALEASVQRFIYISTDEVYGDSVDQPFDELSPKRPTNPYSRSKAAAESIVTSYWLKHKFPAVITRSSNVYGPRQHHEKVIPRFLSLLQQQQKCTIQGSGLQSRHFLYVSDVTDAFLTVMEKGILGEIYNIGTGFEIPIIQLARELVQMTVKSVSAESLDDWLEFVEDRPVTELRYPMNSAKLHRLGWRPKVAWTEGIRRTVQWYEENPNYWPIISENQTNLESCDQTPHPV
# Excerpt: (§1) cycling assay of NAD+ tightly bound to the purified protein on zebrafish Tgds
# [2] = molecular target: T2, zebrafish Tgds (Danio rerio, UniProt A0AC58JQE1, A89S); test: as above; format: binding; details: co-purified, tightly bound cofactor; protein from calculated extinction coefficient at 280 nm
# T2 construct: full coding region (347 residues) from ovary cDNA, pET-28a NdeI/XhoI, N-terminal 6xHis tag (cutting not mentioned), E. coli BL21 DE
# T2 sequence (A0AC58JQE1 1-347 A89S): T1 sequence (A0AC58JQE1 1-347) with A89S
# Excerpt: as §1
# [3] = molecular target: T3, zebrafish Tgds (Danio rerio, UniProt A0AC58JQE1, E79G); test: as above; format: binding; details: co-purified, tightly bound cofactor; protein from calculated extinction coefficient at 280 nm
# T3 construct: full coding region (347 residues) from ovary cDNA, pET-28a NdeI/XhoI, N-terminal 6xHis tag (cutting not mentioned), E. coli BL21 DE
# T3 sequence (A0AC58JQE1 1-347 E79G): T1 sequence (A0AC58JQE1 1-347) with E79G
# Excerpt: as §1
# [4] = molecular target: T4, zebrafish Tgds (Danio rerio, UniProt A0AC58JQE1, Y223H); test: as above; format: binding; details: co-purified, tightly bound cofactor; protein from calculated extinction coefficient at 280 nm
# T4 construct: full coding region (347 residues) from ovary cDNA, pET-28a NdeI/XhoI, N-terminal 6xHis tag (cutting not mentioned), E. coli BL21 DE
# T4 sequence (A0AC58JQE1 1-347 Y223H): T1 sequence (A0AC58JQE1 1-347) with Y223H
# Excerpt: as §1
# [5] = molecular target: T1, zebrafish Tgds; test: anion exchange HPLC; format: biochemical; details: PBS pH 7.3, 30 °C
NAD^+/protein molar ratio ^d [1],NAD^+/protein molar ratio ^d [2],NAD^+/protein molar ratio ^d [3],NAD^+/protein molar ratio ^d [4],Structure (SMILES),anion exchange HPLC [5]
0.55 mol/mol,0.39 mol/mol,0.16 mol/mol,0.04 mol/mol,NC(=O)c1ccc[n+]([C@@H]2O[C@H](COP(=O)(O)OP(=O)(O)OC[C@H]3O[C@@H](n4cnc5c(N)ncnc54)[C@H](O)[C@@H]3O)[C@@H](O)[C@H]2O)c1 [NAD^+],
,,,,Cc1cn([C@H]2C[C@H](O)[C@@H](COP(=O)(O)OP(=O)(O)O[C@H]3O[C@H](CO)[C@@H](O)[C@H](O)[C@H]3O)O2)c(=O)[nH]c1=O [TDP‐D‐glucose],The enzyme exhibited lower activity with TDP‐D‐glucose
